Converted amounts (≈) assume the structure as drawn. Where two headings read alike, the source gives them in different places.

Data set [1] is described as follows: Solubility of drug in water. The format is physicochemical.
Another data set is described as follows: Log P value of drug. Conditions: octanol/water. Format: physicochemical. An excerpt:
The first property of hydrophobic drugs is that they are extremely hydrophobic. Log P, defined as the base 10 logarithm of the ratio of the drug solubility in octanol to the drug solubility in water, is a widely accepted measure of hydrophobicity. By “extremely hydrophobic” is meant that the Log P value of the drug is at least 4.0, preferably at least 4.5, and most preferably at least 5.0. Log P may be measured experimentally or calculated using methods known in the art. When using a calculated value for Log P, the highest value calculated using any generally accepted method for calculating Log P is used. Calculated Log P values are often referred to by the calculation method, such as C log P, A log P, and M log P. The Log P may also be estimated using fragmentation methods, such as Crippen's fragmentation method (27 J. Chem. Inf. Comput. Sci. 21 (1987)); Viswanadhan's fragmentation method (29 J. Chem. Inf. Comput. Sci. 163 (1989)); or Broto's fragmentation method (19 Eur. J. Med. Chem.-Chim. Theor. 71 (1984). Preferably the Log P value is calculated by using the average value estimated using Crippen's, Viswanadhan's, and Broto's fragmentation methods.

How the values of data set [2] were obtained:
By “solids concentration” is meant the amount of solid polymer added to the PBS solution to measure the solubility of the polymer in the PBS solution. An appropriate PBS solution is an aqueous solution comprising 20 mM sodium phosphate (Na2HPO4), 47 mM potassium phosphate (KH2PO4), 87 mM NaCl, and 0.2 mM KCl, adjusted to pH 6.5 with NaOH. A test to determine whether the polymer is poorly water soluble may be performed as follows. The polymer is initially present in bulk form with average particle sizes of greater than 1 micron. The solid polymer alone is added to a PBS solution to achieve a solids concentration of 0.2 mg/mL polymer in the PBS solution. The PBS solution is stirred for approximately 1 hour at room temperature. Next, a nylon 0.45 μm filter is weighed, and the polymer solution is filtered. The filter is dried overnight at 40° C., and weighed the following morning. The amount of polymer dissolved is calculated from the amount of polymer added to the PBS solution minus the amount of polymer remaining on the filter (mg).
The degree of water solubility of Polymers 2, 3, and 5 were evaluated as follows. […] The amount of dissolved polymer was calculated from amount of polymer added to the PBS solution minus the amount of polymer remaining on the filter (mg). […]

As a reminder, the solubility is how much of the substance goes into solution per volume. For the molecule `Cc1ccc(-c2cc(C(F)(F)F)nn2-c2ccc(S(N)(=O)=O)cc2)cc1` [Drug 1, 4-[5-(4-methylphenyl)-3-(trifluoromethyl)-1H-pyrazol-1-yl]benzenesulfonamide], the solubility in data set [1] (read-out: solubility in water) is around 3.5 µg/mL (≈ 9.18 µM).
The same measure, in the same setting: for `CC[C@@H]1C[C@H](N(Cc2cc(C(F)(F)F)cc(C(F)(F)F)c2)C(C)=O)c2cc(C(F)(F)F)ccc2N1C(=O)OC(C)C` [Drug 2, [2R,4S]-4-[acetyl-(3,5-bis-trifluoromethyl-benzyl)-amino]-2-ethyl-6-trifluoromethyl-3,4-dihydro-2H-quinoline-1-carboxylic acid isopropyl ester] the value was below 0.01 µg/mL.
One may read the logP as a log measure of how a compound divides between an organic and an aqueous phase. Consider `O=C1NC(=O)C(c2ccccc2)(c2ccccc2)N1` [Drug 3, diphenylhydantoin], for which the solubility in data set [1] (pH 7.5, aqueous buffer, read-out: solubility in water at pH 7.5) was around 22 µg/mL (≈ 87.2 µM). The molecule further returned a logP in the data set “Log P value of drug” of 2.47.
Consider `O=C1Cc2cc(CCN3CCN(c4nsc5ccccc45)CC3)c(Cl)cc2N1` [Drug 4], for which the solubility in data set [1] (read-out: solubility in water) was around 0.15 µg/mL (≈ 0.363 µM). The molecule also showed a logP in the data set “Log P value of drug” of around 3.6.
As for carboxy methyl ethyl cellulose [CP6], the “Solubility (mg/mL) at pH 6.5” value in data set [2] is reported as 0.2 mg/mL.
With cellulose acetate trimellitate [CP5], the “Solubility (mg/mL) at pH 6.5” value in data set [2] is given as 0.2 mg/mL.

These data come from US20100215747A1, “NANOPARTICLES COMPRISING IONIZABLE, POORLY WATER SOLUBLE CELLULOSIC POLYMERS” (priority 2007, published 2010).
